Measured values: patent US20230406851A1, “IMIDAZOPYRIDINE COMPOUNDS AND USES THEREOF” (priority 2022, published 2023)
pEC50: −log10 of the molar value.

How the values were obtained:
[1] = tested on: rat FCA 96 hr paw model of inflammatory pain (heat hyperalgesia); assay: Heat hyperalgesia (Plantar Test) in rat FCA 96 hr paw model of inflammatory pain; assay type: in vivo; conditions: oral dosing 0.3-1-3-10-20 μmol/kg, 96 h after FCA
Method: (§1) One of the compounds of the present invention was evaluated in an in vivo model of inflammatory pain.
(§2) Male Sprague-Dawley rats (Charles River, St-Constant, Qc, CAN) weighing 200-225 g were utilized for the animal experiment studies. The animals were group-housed in polycarbonate, ventilated cages (filter top) in a controlled environment room (12-h light/dark cycle, 20.5-23.5° C., relative humidity: 40-70%) with food (14% Protein Rodent Maintenance Diet, Harlan Teklad, Madisson, WI, USA) and water ad libidum.
(§3) Inflammation was induced by injection of a single 40 μl Freund's complete adjuvant (FCA) intra-plantar injection into the rat's left hindpaw. All experiments were conducted 96 h after FCA administration. […]
Heat hyperalgesia (Plantar Test) was assessed using a Paw Thermal Stimulator to apply a controlled heat to the plantar surface of the affected paw. […] The heat source and timer were then turned on simultaneously; when the animal withdrew the hind paw the number of seconds was recorded. […]
(§4) Satellite animals were used to monitor the free plasma concentration of example 15 at the doses and time points used in the nociceptive tests. Free plasma EC50 values in behavioral studies were determined from 4-point concentration-response curves using non-linear regression and a sigmoidal variable slope logistic model (Prism 4.03, GraphPad Software Inc., USA).

[2] = tested on: rat FCA 96 hr paw model of inflammatory pain (mechanical hyperalgesia); assay: Mechanical hyperalgesia (Ugo Basile analgesy meter) in rat FCA 96 hr paw model of inflammatory pain; assay type: in vivo; conditions: oral dosing 0.3-1-3-10-20 μmol/kg, 96 h after FCA
Method: as §1, §2, §3
Mechanical hyperalgesia was assessed using the Ugo Basile analgesy meter (Ugo Basile, Comerio, Italy). […] The pressure required to elicit paw withdrawal was determined. […] Paw withdrawal thresholds were calculated as the mean of the two values. […]
as §4

pEC50 ([2]; free plasma concentration, read-out: potency (EC50 free plasma concentration) in reversing mechanical hyperalgesia): 7.06
Structure (SMILES): CNC(=O)c1cc(F)c(-c2nc3cc(C)ccn3c2C[C@H]2CN(C(=O)OC)CCO2)c(F)c1 [Example 15, (S)-methyl-2-((2-(2,6-difluoro-4-(methylcarbamoyl)phenyl)-7-methylimidazo[1,2-a]pyridin-3-yl)methyl)morpholine-4-carboxylate]
reversal of heat hyperalgesia [1]: free plasma concentration dependent reversal
pEC50 ([1]; free plasma concentration, read-out: potency (EC50 free plasma concentration) in reversing heat hyperalgesia): 7.74
reversal of mechanical hyperalgesia [2]: free plasma concentration dependent reversal
